# Assay: Solubility
# Format: physicochemical
smiles,measurement,setting,value
"O=C(CCSCCC(F)(F)C(F)(F)C(F)(F)C(F)(F)C(F)(F)C(F)(F)F)NC(CO)(CO)CO [monoadduct 14, N-[(trihydrozymethyl)methyl]4-thia-6-(n-perfluorohezyl) hexanamide]",solubility in organic solvents (in words),"organic solvents such as AcOEt, CH3CN, CH3OH, CHCl3",soluble in organic solvents
same,solubility in water (in words),water,insoluble in water

# Source: patent publication US6359006B2, “Amphiphilic fluorine derivatives with telomeric structures; preparation procedure and biomedical applications” (Alliance Pharmaceutical Corp., priority 1990, dated 2002)
